Source: patent US20220146526A1, “METHOD FOR EVALUATING SAMPLE, ANALYSIS METHOD, METHOD FOR DETECTING DEGRADED SAMPLE, MARKER FOR DETECTING DEGRADED BLOOD PLASMA SAMPLE, AND MARKER FOR DETECTING DEGRADED SERUM SAMPLE” (SHIMADZU CORPORATION, priority 2019, published 2022)

Legend:
Assay type in all cases: physicochemical, human
[1] = LC/MS of blood plasma sample: number of times of freezing and thawing (Table F)
Procedure: (§1) At room temperature, 5 mL of blood from a healthy subject was taken into a blood-collecting vessel containing EDTA, and the blood-collecting vessel was inverted for mixing, then cooled, and allowed to stand at 4° C. Here, in order to investigate how the detection intensity of molecules contained in the sample was affected in a case where the time to cooling was set to 5 minutes or more as compared to that in a case where the time to cooling was set to 1 minute or less, preparations were performed under both the former condition and the latter condition. After standing, the blood sample was subjected to centrifugation under a condition of 4° C., 3000 rpm, and 15 minutes. […] After centrifugation, the blood-collecting vessel was left to stand at room temperature for 30 minutes, and the blood plasma was isolated during this 30 minutes. The obtained blood plasma sample was frozen and stored. Here, in order to investigate how the detection intensity of molecules contained in the sample was affected in cases where freezing and thawing was performed 4 times, 6 times, and 10 times after freezing as compared to that in a case where freezing and thawing was performed 2 times after freezing, freezing and thawing was performed under the respective conditions of 2, 4, 6, and 10 times.
(§2) Frozen blood plasma samples and serum samples were subjected to GC/MS or LC/MS. In GC/MS, the blood plasma samples and serum samples were subjected to methoxymation and trimethylsilylation and then introduced to GC-MS.
(§3) Analysis column: Discovery HS F5-3 (inner diameter of 2.1 mm, length of 150 mm, film thickness of 3 μm) (Sigma-Aldrich)
(§4) Column temperature: 40° C.
(§5) (A) 0.1% formic acid (dissolved in water)
(§6) (B) 0.1% formic acid (dissolved in acetonitrile)
(§7) Flow velocity: 0.25 mL/min
(§8) Ionization method: electrospray
(§9) Temperature: • Desolvation Line (DL) temperature: 250° C. • Heat block temperature: 400° C. • Interface temperature: 300° C.
(§10) Gas flow rate: • Nebulizer gas flow rate: 3.0 L/min • Drying gas flow rate: 10.0 L/min • Heating gas flow rate: 10.0 L/min
(§11) Mode: multiple reaction monitoring (MRM)
The rate of increase or decrease in Table F is the value of detection intensity relative to 1 that is the detection intensity in a case where the number of times of freezing and thawing is set to 2 times.

[2] = GC/MS of blood plasma sample: time from blood collection to centrifugation (Table A); conditions: blood collection to centrifugation; for Rate of increase or decrease: detection intensity relative to 1 at 15 minutes, after 4 hours; for Increase or decrease: detection intensity, after 4 hours vs 15 minutes
Procedure: as §1, §2
(§12) GC/MS was conducted using GCMS·TQ8040 (Shimadzu Corporation) that was a GC·MS equipped with AOC·20i (Shimadzu Corporation) as an autosampler.
(§13) Column: BPX5 (inner diameter of 0.25 mm, length of 30 m, and film thickness of 0.25 μm) (SGE)
(§14) Column temperature: maintained at 60° C. for 2 minutes, then raised at 15° C./min, and maintained at 330° C. for 3 minutes.
(§15) Inlet temperature: 250° C.
(§16) Carrier gas control mode: constant linear velocity of 39.0 cm/sec
(§17) Sample introduction method: split (split ratio of 30:1) Injection volume: 1 μL
(§18) Ionization method: electron ionization
(§19) Ionization current: 60 μA
(§20) Interface temperature: 280° C.
(§21) Ion source temperature: 200° C.
as §11
The rate of increase or decrease in Table A is the value of detection intensity relative to 1 that is the detection intensity in a case where the time from blood collection to centrifugation is set to 15 minutes.

[3] = GC/MS of blood plasma sample: number of times of freezing and thawing (Table C); conditions: for Increase or decrease: detection intensity; for Rate of increase or decrease (second value, decrease) / Rate of increase or decrease (first value, increase): different from individual to individual, relative to 1 at 2 times, freezing and thawing 6 times; for Rate of increase or decrease (second value, decrease): individuals with decrease; for Rate of increase or decrease (first value, increase): individuals with increase; for Rate of increase or decrease: detection intensity relative to 1 at 2 times, freezing and thawing 4 times
Procedure: as §1, §2, §12, §13, §14, §15, §16, §17, §18, §19, §20, §21, §11
The rate of increase or decrease in Table C is the value of detection intensity relative to 1 that is the detection intensity in a case where the number of times of freezing and thawing is set to 2 times.

[4] = GC/MS of serum sample: time from blood collection to centrifugation (Table G); conditions: blood collection to centrifugation; for Increase or decrease: detection intensity
Outline: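 Blood was held for varying times before centrifugation (room temperature, 3500 rpm, 5 min); serum was frozen, then methoxymated and trimethylsilylated for GC/MS with electron ionization in MRM mode. Values are detection intensities relative to the 15-minute collection-to-centrifugation condition, set as 1.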

[5] = GC/MS of serum sample: time from centrifugation to isolation (Table H); parameters: key to Rate of increase or decrease / Rate of increase or decrease (first value, increase): detection intensity relative to 1 at 30 min centrifugation-to-isolation; conditions: for Rate of increase or decrease: detection intensity relative to 1 at 30 minutes, after 1 hour; for Increase or decrease: detection intensity, after 1 hour vs 30 minutes
Outline: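 Blood was centrifuged at room temperature, 3500 rpm, 5 min, and the vessel left at room temperature for 30 min, 1 h or 6 h before serum isolation. Serum was methoxymated, trimethylsilylated and analysed by GC/MS with electron ionization in MRM mode; intensities expressed relative to the 30-min condition (=1).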

[6] = GC/MS of serum sample: number of times of freezing and thawing (Table I); parameters: key to Rate of increase or decrease / Rate of increase or decrease (first value, increase): detection intensity relative to 2 freeze-thaw cycles = 1; conditions: serum, GC/MS; for Rate of increase or decrease: detection intensity relative to 1 at 2 times; for Increase or decrease: detection intensity
Outline: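 Serum was isolated after centrifugation at room temperature (3500 rpm, 5 min), frozen, and put through 2, 4, 6 or 10 freeze–thaw cycles. Samples were methoxymated and trimethylsilylated, then run by electron-ionization GC/MS in MRM mode on a BPX5 column (60 to 330 °C). Detection intensity is given relative to the 2-cycle sample, set as 1.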

[7] = LC/MS of serum sample: time from blood collection to centrifugation (Table J)
Procedure: (§22) After standing, the blood sample was subjected to centrifugation under a condition of room temperature, 3500 rpm, and 5 minutes. […] After centrifugation, the blood-collecting vessel was left to stand at room temperature, and the serum was isolated during this time. Here, in order to investigate how the detection intensity of molecules contained in the sample was affected in cases where the time during which the blood-collecting vessel was left at room temperature was set to 1 hour and 6 hours as compared to that in a case where the time was set to 30 minutes, preparations were performed under the respective conditions of 30 minutes, 1 hour, and 6 hours. The obtained serum sample was frozen and stored. Here, in order to investigate how the detection intensity of molecules contained in the sample was affected in cases where freezing and thawing was performed 4 times, 6 times, and 10 times after freezing as compared to that in a case where freezing and thawing was performed 2 times after freezing, freezing and thawing was performed under the respective conditions of 2, 4, 6, and 10 times.
as §2, §3, §4, §5, §6, §7, §8, §9, §10, §11
The rate of increase or decrease in Table J is the value of detection intensity relative to 1 that is the detection intensity in a case where the time from blood collection to centrifugation is set to 15 minutes.

[8] = LC/MS of serum sample: number of times of freezing and thawing (Table M); parameters: key to Rate of increase or decrease: detection intensity relative to 1 at 2 freeze-thaw cycles
Procedure: as §22, §2, §3, §4, §5, §6, §7, §8, §9, §10, §11
The rate of increase or decrease in Table M is the value of detection intensity relative to 1 that is the detection intensity in a case where the number of times of freezing and thawing is set to 2 times.

[9] = freezing and thawing 6 times vs 2 times
[10] = freezing and thawing 4 times vs 2 times

Rate of increase or decrease [2]	Increase or decrease [2]	Increase or decrease [3, 9]	Rate of increase or decrease (second value, decrease) [3]	Rate of increase or decrease (first value, increase) [3]	Rate of increase or decrease [5]	Increase or decrease [5]	Rate of increase or decrease [3]	Increase or decrease [3, 10]	SMILES	other results
									NC(=O)CC[C@H](N)C(=O)O [Glutamine]	Rate of increase or decrease ([1]; detection intensity relative to 1 at 2 times, freezing and thawing 10 times): 1.34; Increase or decrease ([1]; detection intensity, freezing and thawing 10 times vs 2 times): Increase
1.62	Increase	Different from individual	0.68	1.63	2.08	Increase			CCCCCCCCCCCCCCCCCCO [Octadecanol]	Increase or decrease ([4]; after 4 hours vs 15 minutes): Increase; Rate of increase or decrease ([6]; freezing and thawing 6 times): 1.64; Increase or decrease [6, 9]: Increase
0.17	Decrease						1.62	Increase	O=C(O)[C@H](O)[C@H](O)[C@H](O)CO [Ribonic acid]	Rate of increase or decrease ([4]; detection intensity relative to 1 at 15 minutes, after 12 hours): 1.46; Increase or decrease ([4]; after 12 hours vs 15 minutes): Increase
					2.06	Increase	1.56	Increase	OB(O)O [Boric acid]	Rate of increase or decrease ([6]; freezing and thawing 4 times): 0.63; Increase or decrease [6, 10]: Decrease
1.50	Increase	Different from individual	0.62	1.93					Nc1cc[nH]c(=O)n1 [Cytosine]	
									N[C@@H](CO)C(=O)O [Serine, serine]	Rate of increase or decrease ([7]; after 6 hours from blood collection to centrifugation, detection intensity relative to 1 at 15 minutes): 1.44; Increase or decrease ([7]; serum sample, LC/MS, detection intensity vs 15 minutes from blood collection to centrifugation): Increase; Time when compound is affected ([7]; serum sample, LC/MS, time from blood collection to centrifugation, detection intensity changed by 30% or more vs 15 minutes): After 6 hours; Rate of increase or decrease ([8]; 6 times of freezing and thawing, detection intensity relative to 1 at 2 times): 0.66; Number of times when compound is affected ([8]; serum sample, LC/MS, detection intensity changed by 30% or more vs 2 times of freezing and thawing): 6 times; Increase or decrease ([8]; serum sample, LC/MS, detection intensity vs 2 times of freezing and thawing): Decrease
